The values below come from patent publication EP4592286A1, “MACROCYCLIC NITROGEN-CONTAINING CROWN ETHER COMPOUND AND USE THEREOF AS PROTEIN KINASE INHIBITOR” (Artivila Biopharma, priority 2022, dated 2024).

Where only a bound is given, the exact number is not on record here.

Assay type in all cases: biochemical
In test [1] the target is TYK2 (Homo sapiens, UniProt P29597). Description: experiment of inhibiting kinase activity, TYK2. The conditions noted are these: read-out: inhibition rate TYK2; for inhibition at 0.1 µM: at 100 nM; for inhibition at 0.01 µM: at 10 nM. As to the method:
(§1) The inhibition rates of tested compounds on JAK1, JAK2, JAK3, TYK2, CDK7, CDK9, EGFR (T790M) and LRRK2 kinases were measured. The test concentrations of the compounds were 10 nM and 100 nM, and the detection was performed by replicate wells. Alternatively, compounds were 3-fold serial diluted from 10 µM for 10 concentrations in replicate wells.

The target in test [2] is JAK2 (Homo sapiens, UniProt O60674). Description: experiment of inhibiting kinase activity (Caliper mobility shift assay), JAK2. The conditions noted are these: for inhibition at 0.1 µM: at 100 nM; for inhibition at 0.1 µM / inhibition at 0.01 µM: read-out: inhibition rate JAK2; for IC50: kinase activity assay, Table 3; for inhibition at 0.01 µM: at 10 nM. As to the method:
as §1
(§2) The inhibitory effects of the compounds on JAK1, JAK2, JAK3, CDK7 and CDK9 kinases were detected by the method of Caliper mobility shift assay. 250 nL of the compound at 100-fold final concentration was transferred to a destination plate 384-well-plate by using a liquid handler Echo 550. A kinase solution at 2.5-fold final concentration was prepared with 1×kinase buffer. 10 µL of the kinase solution with 2.5-fold final concentration was added to compound wells and positive control wells; and 10 µL of 1×kinase buffer was added to negative control wells. The mixture was centrifuged at 1000 rpm for 30 seconds and then incubated at room temperature for 10 minutes. A mixed solution of ATP and kinase substrate at 5/3-fold final concentration was prepared with 1×kinase buffer, and 15 µL of the mixed solution of ATP and substrate at 5/3-fold final concentration was added to start the reaction. The 384-well plate was centrifuged at 1000 rpm for 30 seconds, shaked and mixed evenly, then incubated at room temperature for a corresponding time. 30 µL of stop solution was added to stop the kinase reaction, the mixture was centrifuged at 1000 rpm for 30 seconds, and shaked and mixed evenly. The conversion rate was read by Caliper EZ Reader. The conversion inhibition rate%=(average positive control conversion rate%-sample conversion rate%)/(average positive control conversion rate%-average negative control conversion rate%). Where negative control wells represent the conversion readings of the background well of kinase buffer; and positive control wells represent the conversion readings of wells without compound inhibition. With the log value of concentration as the x axis and the percentage inhibition rate as the y axis, the dose-response curve was fitted by the log (inhibitor) vs. response-variable slope of the analyzing softwar GraphPad Prism 5, and the IC50 values of each compound on enzyme activity were obtained. Calculation formula is as follows: y=Bottom+(Top-Bottom)/(1+10^((LogIC50-x)×hillslope)), where x is logarithm of inhibitor concentration; and Y is % inhibition rate.

The target of test [3] is LRRK2 (Homo sapiens, UniProt Q5S007). Description: experiment of inhibiting kinase activity, LRRK2. The note with it: for inhibition at 0.1 µM: at 100 nM; for inhibition at 0.1 µM / inhibition at 0.01 µM: read-out: inhibition rate LRRK2; for IC50: kinase activity assay, Table 3; for inhibition at 0.01 µM: at 10 nM. As to the method:
as §1

The target of test [4] is T1, JAK3 (Homo sapiens, UniProt P52333).
T1 sequence (P52333 1-1124): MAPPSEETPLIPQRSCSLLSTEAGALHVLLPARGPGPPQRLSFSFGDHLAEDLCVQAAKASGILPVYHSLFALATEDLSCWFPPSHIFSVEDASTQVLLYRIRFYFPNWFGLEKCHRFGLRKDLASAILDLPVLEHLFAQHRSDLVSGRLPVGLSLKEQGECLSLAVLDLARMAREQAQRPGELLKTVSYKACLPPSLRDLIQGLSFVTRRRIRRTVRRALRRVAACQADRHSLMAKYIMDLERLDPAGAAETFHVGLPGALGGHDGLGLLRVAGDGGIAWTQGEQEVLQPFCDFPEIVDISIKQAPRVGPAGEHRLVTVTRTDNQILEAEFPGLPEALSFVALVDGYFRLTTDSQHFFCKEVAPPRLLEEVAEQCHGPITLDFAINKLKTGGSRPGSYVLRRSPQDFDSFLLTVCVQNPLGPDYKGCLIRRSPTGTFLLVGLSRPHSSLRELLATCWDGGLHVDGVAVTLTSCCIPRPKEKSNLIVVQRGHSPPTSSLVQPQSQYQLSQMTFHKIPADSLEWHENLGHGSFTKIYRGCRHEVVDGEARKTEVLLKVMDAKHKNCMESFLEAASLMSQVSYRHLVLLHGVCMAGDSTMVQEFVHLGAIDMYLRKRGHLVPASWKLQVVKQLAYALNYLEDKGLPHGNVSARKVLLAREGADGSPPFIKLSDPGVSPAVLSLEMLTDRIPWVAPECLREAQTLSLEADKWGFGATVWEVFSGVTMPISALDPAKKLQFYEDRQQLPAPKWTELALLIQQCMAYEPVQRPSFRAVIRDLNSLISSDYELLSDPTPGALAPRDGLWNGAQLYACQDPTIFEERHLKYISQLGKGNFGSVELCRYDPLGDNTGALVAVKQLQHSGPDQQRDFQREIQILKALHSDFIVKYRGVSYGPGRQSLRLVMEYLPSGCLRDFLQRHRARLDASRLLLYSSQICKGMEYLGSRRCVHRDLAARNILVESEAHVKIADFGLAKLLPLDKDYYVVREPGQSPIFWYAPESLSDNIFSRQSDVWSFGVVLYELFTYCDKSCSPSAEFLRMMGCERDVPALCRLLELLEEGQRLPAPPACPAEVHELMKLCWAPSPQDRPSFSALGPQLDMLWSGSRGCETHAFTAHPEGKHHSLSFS
Description: experiment of inhibiting kinase activity (Caliper mobility shift assay), JAK3. The note with it: for inhibition at 0.01 µM: at 10 nM; for inhibition at 0.01 µM / inhibition at 0.1 µM: read-out: inhibition rate JAK3; for inhibition at 0.1 µM: at 100 nM. As to the method: as §1, §2

The target in test [5] is JAK1 (Homo sapiens, UniProt P23458). Description: experiment of inhibiting kinase activity (Caliper mobility shift assay), JAK1. The conditions noted are these: for inhibition at 0.1 µM: at 100 nM; for inhibition at 0.1 µM / inhibition at 0.01 µM: read-out: inhibition rate JAK1; for inhibition at 0.01 µM: at 10 nM. The protocol:
as §1, §2

Sequence of JAK2 (O60674 whole entry): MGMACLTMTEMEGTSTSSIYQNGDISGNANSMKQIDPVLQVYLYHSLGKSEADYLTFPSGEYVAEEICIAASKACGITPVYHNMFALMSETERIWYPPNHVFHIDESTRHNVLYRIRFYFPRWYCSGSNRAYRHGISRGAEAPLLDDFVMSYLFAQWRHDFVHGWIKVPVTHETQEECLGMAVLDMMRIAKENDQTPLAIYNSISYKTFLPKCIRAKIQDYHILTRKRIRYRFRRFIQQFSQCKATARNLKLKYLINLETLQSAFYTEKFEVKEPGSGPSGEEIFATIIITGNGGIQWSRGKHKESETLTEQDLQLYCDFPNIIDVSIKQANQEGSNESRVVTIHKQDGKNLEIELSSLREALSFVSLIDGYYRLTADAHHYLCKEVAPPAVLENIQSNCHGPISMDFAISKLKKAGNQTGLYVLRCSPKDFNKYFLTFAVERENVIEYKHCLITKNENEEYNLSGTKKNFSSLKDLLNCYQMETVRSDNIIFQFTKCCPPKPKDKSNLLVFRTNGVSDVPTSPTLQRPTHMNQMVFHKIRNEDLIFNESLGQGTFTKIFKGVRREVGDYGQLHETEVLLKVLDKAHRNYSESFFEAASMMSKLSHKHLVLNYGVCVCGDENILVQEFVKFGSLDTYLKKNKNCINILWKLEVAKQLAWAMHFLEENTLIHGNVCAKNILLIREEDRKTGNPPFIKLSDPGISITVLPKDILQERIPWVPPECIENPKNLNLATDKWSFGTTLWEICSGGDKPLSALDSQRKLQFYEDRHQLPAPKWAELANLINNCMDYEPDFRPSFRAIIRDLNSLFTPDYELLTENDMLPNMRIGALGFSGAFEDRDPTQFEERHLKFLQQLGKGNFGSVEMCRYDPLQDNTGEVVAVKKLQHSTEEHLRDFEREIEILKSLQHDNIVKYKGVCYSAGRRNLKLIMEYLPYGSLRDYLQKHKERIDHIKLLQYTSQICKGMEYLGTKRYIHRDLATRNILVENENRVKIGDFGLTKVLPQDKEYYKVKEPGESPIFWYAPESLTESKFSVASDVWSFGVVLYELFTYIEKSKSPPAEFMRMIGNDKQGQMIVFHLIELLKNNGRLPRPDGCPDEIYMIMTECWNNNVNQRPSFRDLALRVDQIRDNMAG
Sequence of LRRK2 (Q5S007 whole entry): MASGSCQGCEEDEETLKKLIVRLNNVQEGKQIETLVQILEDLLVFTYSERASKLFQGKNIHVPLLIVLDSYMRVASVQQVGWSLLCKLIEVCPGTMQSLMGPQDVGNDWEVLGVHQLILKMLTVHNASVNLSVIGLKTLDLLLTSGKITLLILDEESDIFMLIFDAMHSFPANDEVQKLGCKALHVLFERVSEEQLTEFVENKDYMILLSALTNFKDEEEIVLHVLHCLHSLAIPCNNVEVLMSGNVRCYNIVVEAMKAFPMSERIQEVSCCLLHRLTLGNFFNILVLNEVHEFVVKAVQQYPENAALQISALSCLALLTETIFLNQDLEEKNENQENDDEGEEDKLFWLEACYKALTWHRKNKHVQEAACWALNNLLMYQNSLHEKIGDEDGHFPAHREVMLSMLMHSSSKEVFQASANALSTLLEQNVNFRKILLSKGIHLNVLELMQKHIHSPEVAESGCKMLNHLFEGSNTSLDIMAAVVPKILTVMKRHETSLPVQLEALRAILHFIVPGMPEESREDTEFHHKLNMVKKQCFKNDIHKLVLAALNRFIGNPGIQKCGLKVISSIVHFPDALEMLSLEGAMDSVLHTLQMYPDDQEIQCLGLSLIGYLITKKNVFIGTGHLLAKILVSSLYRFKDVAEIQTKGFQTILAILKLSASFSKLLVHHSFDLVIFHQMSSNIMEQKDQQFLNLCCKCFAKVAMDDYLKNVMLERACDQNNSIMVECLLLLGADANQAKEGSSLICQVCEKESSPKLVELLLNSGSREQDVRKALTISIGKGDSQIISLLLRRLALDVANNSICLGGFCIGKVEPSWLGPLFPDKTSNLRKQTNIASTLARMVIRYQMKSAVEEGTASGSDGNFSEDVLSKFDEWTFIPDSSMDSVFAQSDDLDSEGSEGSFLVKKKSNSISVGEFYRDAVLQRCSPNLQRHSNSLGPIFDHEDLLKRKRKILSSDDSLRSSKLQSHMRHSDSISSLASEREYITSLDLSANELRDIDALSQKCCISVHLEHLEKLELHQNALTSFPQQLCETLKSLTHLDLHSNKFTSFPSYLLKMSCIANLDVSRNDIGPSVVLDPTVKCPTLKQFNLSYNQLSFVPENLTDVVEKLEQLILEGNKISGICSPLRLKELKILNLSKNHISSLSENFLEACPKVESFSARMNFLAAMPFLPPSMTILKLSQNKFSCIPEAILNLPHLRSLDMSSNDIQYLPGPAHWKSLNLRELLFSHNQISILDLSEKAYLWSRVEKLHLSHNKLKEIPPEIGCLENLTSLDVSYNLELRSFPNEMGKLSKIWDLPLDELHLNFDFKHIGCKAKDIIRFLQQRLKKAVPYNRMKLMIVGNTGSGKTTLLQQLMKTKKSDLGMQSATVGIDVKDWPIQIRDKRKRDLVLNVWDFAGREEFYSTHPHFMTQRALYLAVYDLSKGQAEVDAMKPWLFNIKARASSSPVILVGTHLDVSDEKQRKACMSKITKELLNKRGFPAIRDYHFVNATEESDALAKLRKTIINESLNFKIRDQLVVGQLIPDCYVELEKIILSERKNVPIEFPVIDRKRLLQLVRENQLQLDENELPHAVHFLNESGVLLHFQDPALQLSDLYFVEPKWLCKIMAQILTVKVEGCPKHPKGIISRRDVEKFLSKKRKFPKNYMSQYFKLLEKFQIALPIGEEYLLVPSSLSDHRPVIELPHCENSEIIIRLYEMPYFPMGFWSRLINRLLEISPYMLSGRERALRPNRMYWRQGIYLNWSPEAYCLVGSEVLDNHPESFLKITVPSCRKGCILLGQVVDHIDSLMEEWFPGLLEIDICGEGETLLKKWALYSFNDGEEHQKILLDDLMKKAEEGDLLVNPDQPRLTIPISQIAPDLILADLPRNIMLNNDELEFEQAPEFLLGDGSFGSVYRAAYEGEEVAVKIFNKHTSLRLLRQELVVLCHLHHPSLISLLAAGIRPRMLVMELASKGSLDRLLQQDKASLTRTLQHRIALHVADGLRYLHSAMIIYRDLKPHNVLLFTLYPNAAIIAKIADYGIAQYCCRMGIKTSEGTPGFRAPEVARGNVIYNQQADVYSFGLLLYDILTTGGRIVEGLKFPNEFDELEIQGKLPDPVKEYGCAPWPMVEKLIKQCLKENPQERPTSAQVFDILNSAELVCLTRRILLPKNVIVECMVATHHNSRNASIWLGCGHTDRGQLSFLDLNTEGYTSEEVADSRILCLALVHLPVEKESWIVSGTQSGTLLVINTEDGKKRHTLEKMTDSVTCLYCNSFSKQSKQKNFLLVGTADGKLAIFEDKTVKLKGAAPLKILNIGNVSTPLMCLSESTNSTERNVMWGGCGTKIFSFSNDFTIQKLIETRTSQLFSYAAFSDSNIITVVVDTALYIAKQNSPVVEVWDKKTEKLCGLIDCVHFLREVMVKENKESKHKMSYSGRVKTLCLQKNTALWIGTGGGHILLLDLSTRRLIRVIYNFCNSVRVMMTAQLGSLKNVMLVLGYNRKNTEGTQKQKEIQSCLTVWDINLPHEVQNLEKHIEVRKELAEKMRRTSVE
Sequence of JAK1 (P23458 whole entry): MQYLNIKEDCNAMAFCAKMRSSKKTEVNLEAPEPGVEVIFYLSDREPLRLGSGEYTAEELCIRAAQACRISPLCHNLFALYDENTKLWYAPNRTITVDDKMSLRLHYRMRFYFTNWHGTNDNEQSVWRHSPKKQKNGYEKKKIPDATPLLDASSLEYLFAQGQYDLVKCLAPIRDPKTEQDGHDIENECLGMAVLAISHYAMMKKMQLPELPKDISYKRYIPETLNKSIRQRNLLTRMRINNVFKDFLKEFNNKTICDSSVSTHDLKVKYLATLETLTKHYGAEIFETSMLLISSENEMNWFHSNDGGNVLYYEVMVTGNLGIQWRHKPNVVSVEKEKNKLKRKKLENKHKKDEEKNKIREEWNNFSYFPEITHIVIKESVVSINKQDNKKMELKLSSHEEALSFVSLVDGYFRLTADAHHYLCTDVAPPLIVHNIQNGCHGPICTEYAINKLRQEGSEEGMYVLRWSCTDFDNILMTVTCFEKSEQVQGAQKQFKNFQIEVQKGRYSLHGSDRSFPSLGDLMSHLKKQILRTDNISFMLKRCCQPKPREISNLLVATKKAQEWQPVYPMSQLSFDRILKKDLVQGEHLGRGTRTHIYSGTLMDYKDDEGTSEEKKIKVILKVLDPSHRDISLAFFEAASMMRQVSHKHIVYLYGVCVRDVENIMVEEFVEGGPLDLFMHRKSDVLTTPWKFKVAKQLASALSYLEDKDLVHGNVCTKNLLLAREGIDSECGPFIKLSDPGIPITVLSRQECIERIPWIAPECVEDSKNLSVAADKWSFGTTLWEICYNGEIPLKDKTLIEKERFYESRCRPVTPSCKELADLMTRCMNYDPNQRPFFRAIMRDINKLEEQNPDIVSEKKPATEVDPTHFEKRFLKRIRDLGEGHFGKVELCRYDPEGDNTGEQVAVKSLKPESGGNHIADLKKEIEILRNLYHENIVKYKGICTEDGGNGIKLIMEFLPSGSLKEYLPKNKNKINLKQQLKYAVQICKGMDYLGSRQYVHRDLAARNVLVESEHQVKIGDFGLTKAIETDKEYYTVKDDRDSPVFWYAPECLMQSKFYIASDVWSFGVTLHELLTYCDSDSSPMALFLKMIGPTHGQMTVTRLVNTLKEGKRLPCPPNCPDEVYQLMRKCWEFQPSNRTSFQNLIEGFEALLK

`CCS(=O)(=O)N1CC(CC#N)(n2cc(-c3nc(Nc4ccc5c(c4)OCCN(C)CCO5)nc4[nH]ncc34)cn2)C1` [Example 29, 2-(1-(ethylsulfonyl)-3-(4-(6-((4-methyl-3,4,5,6-tetrahydro-2H-benzo[b][1,4,7]dioxazolin-9-yl)amino)-1H-pyrazolo[3,4-d]pyrimidin-4-yl)-1H-pyrazol-1-yl)azetidin-3-yl) acetonitrile]: the inhibition (usually how much of the control response was suppressed) at 0.1 µM in test [1] is greater than 80%; in test [2] it was greater than 80%; in test [3], 40 to 79%; in test [5], greater than 80%. Further, the IC50 (in general, the concentration at which inhibition is half-maximal) is less than 50 nM in test [2]; 50 to 200 nM in test [3]; less than 50 nM in test [4] (kinase activity assay, Table 3); less than 50 nM in test [5] (kinase activity assay, Table 3).
As to `CN1CCOCCOc2cc(Nc3nc(-c4ccc(C(=O)NCC#N)cc4)c4cc[nH]c4n3)ccc2OCC1` [Example 17, N-(cyanomethyl)-4-(2-((7-methyl-2,3,6,7,8,9-hexahydro-5H-benzo[b][1,4,7]trioxa [10]azacyclododecan-13-yl)amino)-7H-pyrrolo[2,3-d]pyrimidin-4-yl)benzamide], the inhibition at 0.01 µM was 40 to 79% in test [1]; greater than 80% in test [2]; 40 to 79% in test [3]; 40 to 79% in test [4]; 40 to 79% in test [5].
Regarding `CN1CCOc2ccc(Nc3nc(-c4ccc(C(=O)NCC#N)cc4)c4cn[nH]c4n3)cc2OCC1` [Example 38, N-(cyanomethyl)-4-(6-((4-methyl-3,4,5,6-tetrahydro-2H-benzo[b][1,4,7]dioxazolin-9-yl)amino)-1H-pyrazolo[3,4-d]pyrimidin-4-yl)benzamide], the inhibition at 0.1 µM was 40 to 79% in test [1]; greater than 80% in test [2]; 40 to 79% in test [3]; 25 to 39% in test [4]; 40 to 79% in test [5]. The half-maximal inhibitory concentration (IC50) in test [2] was less than 50 nM; in test [3], 50 to 200 nM.
Take `CN1CCOCCOc2ccc(Nc3ncc(F)c(Nc4cccc(S(=O)(=O)NC(C)(C)C)c4)n3)cc2OCC1` [Example 40, N-(tert-butyl)-3-((5-fluoro-2-((7-methyl-2,3,6,7,8,9-hexahydro-5H-benzo[b][1,4,7]trioxa[10]azacyclododecan-12-yl)amino)pyrimidin-4-yl)amino)benzenesulfonamide]: the inhibition at 0.1 µM in test [1] is 40 to 79%; in test [2], greater than 80%; in test [3], 25 to 39%; in test [4] it was 25 to 39%; in test [5], 25 to 39%. Further, the inhibition at 0.01 µM in test [2] is greater than 80%.
As for `CN1CCOCCOc2cc(Nc3ncc(F)c(Nc4cccc(S(=O)(=O)NC(C)(C)C)c4)n3)ccc2OCC1` [Example 9, N-(tert-butyl)-3-((5-fluoro-2-((7-methyl-2,3,6,7,8,9-hexahydro-5H-benzo[b][1,4,7]trioxa[10]azacyclododecan-13-yl)amino)pyrimidin-4-yl)amino)benzenesulfonamide], the inhibition at 0.1 µM in test [1] was 40 to 79%; in test [2], greater than 80%; in test [3], 40 to 79%; in test [4], 40 to 79%; in test [5], 25 to 39%. In addition, the inhibition at 0.01 µM in test [2] is greater than 80%. Besides, the 50% inhibitory concentration (IC50) in test [2] is less than 50 nM.
Consider `CN1CCOc2ccc(Nc3nc(-c4cnn([C@@H](CC#N)C5CCCC5)c4)c4cc[nH]c4n3)cc2OCC1` [Example 77, (S)-3-cyclopentyl-3-(4-(2-((4-methyl-3,4,5,6-tetrahydro-2H-benzo[b][1,4,7]dioxazolin-9-yl)amino)-7H-pyrrolo[2,3-d]pyrimidin-4-yl)-1H-pyrazol-1-yl)propanenitrile], for which the inhibition at 0.01 µM in test [1], in test [2], in test [3], in test [4] and in test [5] was greater than 80% throughout.
Consider `CN1CCOCCOc2ccc(Nc3nc(-c4ccc(C(=O)NCC#N)cc4)c4cc[nH]c4n3)cc2OCC1` [Example 51, N-(cyanomethyl)-4-(2-((7-methyl-2,3,6,7,8,9-hexahydro-5H-benzo[b][1,4,7]trioxa [10]azacyclododecan-12-yl)amino)-7H-pyrrolo[2,3-d]pyrimidin-4-yl)benzamide], for which the inhibition at 0.01 µM in test [1] was 25 to 39%; in test [2], greater than 80%; in test [3], 25 to 39%; in test [4], 40 to 79%; in test [5], 40 to 79%.
Take `CN1CCOCCOc2ccc(Nc3nc(-c4cnn(C(CC#N)C5CCCC5)c4)c4cc[nH]c4n3)cc2OCC1` (stereo not shown) [Example 48, 3-cyclopentyl-3-(4-(2-((7-methyl-2,3,6,7,8,9-hexahydro-5H-benzo[b][1,4,7]trioxa [10]azacyclododecan-12-yl)amino)-7H-pyrrolo[2,3-d]pyrimidin-4-yl)-1H-pyrazol-1-yl) propionitrile]: the inhibition at 0.01 µM in test [1], in test [2], in test [3], in test [4] and in test [5] was greater than 80% in each case.
For `CN1CCOCCOc2cc(Nc3nc(-c4cnn([C@H](CC#N)C5CCCC5)c4)c4cc[nH]c4n3)ccc2OCC1` [Example 74, (R)-3-cyclopentyl-3-(4-(2-((7-methyl-2,3,6,7,8,9-hexahydro-5H-benzo[b][1,4,7]trioxa[10]azacyclododecan-13-yl)amino)-7H-pyrrolo[2,3-d]pyrimidin-4-yl)-1H-pyrazol-1-yl) propionitrile], the inhibition at 0.01 µM was greater than 80% in test [1]; greater than 80% in test [2]; 40 to 79% in test [3]; greater than 80% in test [4]; 25 to 39% in test [5].
Consider `CN1CCOc2ccc(Nc3nc(-c4cnn([C@H](CC#N)C5CCCC5)c4)c4cc[nH]c4n3)cc2OCC1` [Example 76, (R)-3-cyclopentyl-3-(4-(2-((4-methyl-3,4,5,6-tetrahydro-2H-benzo[b][1,4,7]dioxazolin-9-yl)amino)-7H-pyrrolo[2,3-d]pyrimidin-4-yl)-1H-pyrazol-1-yl)propanenitrile], for which the inhibition at 0.01 µM in test [1] is greater than 80%; in test [2], greater than 80%; in test [3], 40 to 79%; in test [4], 40 to 79%; in test [5] it was 40 to 79%.
